According to patent publication US11000537B2, “Composition comprising novel ginsenoside” (AMOREPACIFIC CORPORATION, priority 2018, dated 2021):

What was measured:
Assay type in all cases: cell-based
[1] = test system: aP2 (Adipocyte protein 2); assay: aP2 adipocyte marker gene expression (qPCR)
Method: The adipocyte cell 3T3-L1 purchased from the International Center for Biological Resources (ATCC) were placed in Dulbecco's Modified Eagle's Medium (Sigma) to which 10% fetal bovine serum (Hyclone) and 1% penicillin/streptomycin (Sigma) were added, and cultured in a 5% CO2 incubator. In order to differentiate preadipocytes into adipocytes, the cells were filled in a culture plate and cultured. After 48 hours, the cells were replaced with Dulbecco's modified eagle medium (DMEM) to which 10% of fetal bovine serum (Hyclone), 0.5 mM of 3-isobutyl-1-methylxanthine (Sigma), 1 μM of dexamethasone (Sigma), 5 μg/ml of insulin (Sigma), 1% of penicillin/streptomycin (Sigma) were added and further cultured for 48 hours. During 48 hours of culture, seven types of ginsenoside reagents (GS #01-GS #06, GS #10) extracted from Ginseng seeds were treated at 10 μM each to affect adipocyte differentiation. […]
After the differentiation of adipocytes in the same manner as above, the expressions of PPARγ (Peroxisome proliferator-activated receptor gamma), aP2 (Adipocyte protein 2) and CD36 were observed as adipocyte marker genes. […] Bio-Rad's CFX96 real-time quantitative PCR (qPCR) instrument was used to quantify the expression levels of each gene. […]

[2] = test system: adipocyte cell 3T3-L1; assay: fat accumulation in adipocytes (Oil-red O staining)
Method: The adipocyte cell 3T3-L1 purchased from the International Center for Biological Resources (ATCC) were placed in Dulbecco's Modified Eagle's Medium (Sigma) to which 10% fetal bovine serum (Hyclone) and 1% penicillin/streptomycin (Sigma) were added, and cultured in a 5% CO2 incubator. In order to differentiate preadipocytes into adipocytes, the cells were filled in a culture plate and cultured. After 48 hours, the cells were replaced with Dulbecco's modified eagle medium (DMEM) to which 10% of fetal bovine serum (Hyclone), 0.5 mM of 3-isobutyl-1-methylxanthine (Sigma), 1 μM of dexamethasone (Sigma), 5 μg/ml of insulin (Sigma), 1% of penicillin/streptomycin (Sigma) were added and further cultured for 48 hours. […] As a control to confirm the effect of inhibiting adipocyte differentiation, 20 μM of bisphenol A diglycidyl ether (BADGE) (Sigma), a PPARγ (Peroxisome proliferator-activated receptor gamma) antagonist, was used. Thereafter, the cells were further cultured for 10 days while being replaced with a medium containing 10% FBS and 5 μg/ml insulin and 1% penicillin/streptomycin at two-day intervals to induce adipocyte differentiation.
Differentiated adipocytes treated with each of the seven types of ginsenosides were fixed with formaldehyde solution (Sigma), stained with Oil-red O staining solution (Sigma), and then dissolved with isopropanol (Sigma), and then the amount of the stained fat was quantified by measuring at 490 nm absorbance.

[3] = test system: 3T1-L1 adipocytes; assay: glucose uptake (glucose transport) in differentiated adipocytes; conditions: 10 μM, FIG. 13
Method: 3T1-L1 adipocytes (ATCC) were purchased, and 10% bovine calf serum (Hyclone) and 1% penicillin/streptomycin (Sigma) were added to a Dulbecco's Modified Eagle's Medium (Sigma) and cultured in a 5% CO2 culture medium. In order to differentiate preadipocyte cells into adipocytes, a culture plate was filled with cells and cultured for 48 hours. The cells were then replaced in a DMEM medium to which 10% fetal bovine serum (FBS) (Hyclone), 0.5 mM 3-isobutyl-1-methylxanthine (Sigma), 1 μM dexamethasone (Sigma), 5 μg/ml insulin (Sigma), and 1% penicillin/streptomycin were added and cultured for another 48 hours. Thereafter, the cells were further cultured for 14 days while being replaced in a medium containing 10% FBS, 5 μg/ml insulin, and 1% penicillin/streptomycin at two-day intervals to obtain fully differentiated adipocytes. […] As a positive control for measuring glucose uptake in blood, Metformin (Sigma; 10 μM), which is used as a diabetic therapeutic agent, was used, and novel ginsenoside GS #10, which is an example of the present disclosure, isolated from Ginseng seed extract and ginsenosides GS #01-GS #06, which are comparative examples of the present disclosure, were treated with 10 μM each. In addition, both insulin-dependent/independent glucose transport capacity was measured by treating insulin together, which may promote glucose uptake.

[4] = test system: human umbilical vein endothelial cells (HUVECs); assay: survival rate of vascular endothelial cells (MTT)
Method: In this experiment, it was confirmed whether the novel ginsenoside GS #10 of an embodiment of the present disclosure can increase the survival rate of vascular endothelial cells. Specifically, human umbilical vein endothelial cells (HUVECs) were purchased from the International Center for Biological Resources (ATCC) and cultured, and then the novel ginsenoside GS #10 was treated at a concentration of 1-10 μg/ml and MTT(3-(4,5-dimethylthiazol-2-yl)-2,5-diphenyltetrazolium bromide) analysis was performed to observe cell death.

[5] = test system: SH-SY5Y cells; assay: cytotoxicity, Cell Counting Kit (CCK)-8; conditions: 0.1, 1, 5, 10, 20 and 50 μM, FIG. 17
Method: 10 μl of the CCK-8 reagent was added to the culturing SH-SY5Y cells (Dojindo, Md., USA) with reference to a 96-well plate, and left at 37° C. for 2 hours, and then the absorbance was measured at 450 nm. The cell viability was marked as a percentage (%) of the absolute optical density of each sample relative to the untreated sample. At this time, the concentration of the novel ginsenoside GS #10, which is an example of the present disclosure, contained in the medium in which the cells were cultured was 0.1, 1, 5, 10, 20, and 50 μM, respectively.

[6] = test system: HMG-CoA (3-hydroxy-3-methyl-glutaryl-coenzyme A) reductase; assay: HMG-CoA reductase gene expression in HepG2 (qPCR); conditions: 24 hours

## CC1(C)C(=O)CC[C@@]2(C)C1[C@@H](O[C@H]1OC(CO)[C@H](O)C(O)C1O[C@H]1OC(CO)[C@H](O)C(O)C1O)C[C@]1(C)C2C[C@@H](O)C2C([C@]3(C)CC[C@H](C(C)(C)O)O3)CC[C@]21C (stereo partly drawn) [GS #10, (20S,24R)-6-O-β-D-glucopyranosyl(1→2)-β-D-glucopyranoside-dammar-3-one-20,24-epoxy-6a,12b,25-triol]
[1]; 1 μM and 10 μM, compared with Rg1, Rg3, Rb1, FIG. 40
  adipocyte differentiation inhibition, aP2 gene expression: far superior in adipocyte differentiation inhibition
[1]; 10 μM, FIG. 36
  adipocyte differentiation inhibition, aP2 gene expression: more effective in inhibiting the adipocyte differentiation
[2]; 1 μM and 10 μM, compared with Rg1, Rg3, Rb1, FIG. 38
  fat accumulation inhibitory effect in adipocytes: far superior in adipocyte differentiation inhibition and fat accumulation inhibitory effect
[2]; 10 μM during 48 hours of differentiation, FIG. 34
  fat accumulation inhibitory effect in adipocytes: most excellent fat accumulation inhibitory effect
[3]; combined with insulin (+insulin)
  glucose transport promotion: the glucose transport is further increased as compared with the insulin-only treatment group
[3]; material-only treatment (−insulin)
  glucose transport promotion: statistically significant glucose transport promotion
[4]; 10 μg/ml, MTT, compared with GS #01-GS #06, FIG. 45
  survival rate-increasing effect of vascular endothelial cells: highest survival rate-increasing effect of vascular endothelial cells
[4]; 10 μg/ml, compared with Rg1, Rg3, Rb1, FIG. 47
  increased survival rate of vascular endothelial cells (HUVEC): far superior
[4]; 1-10 μg/ml, MTT, FIG. 44
  survival rate of HUVEC: increase the survival rate of HUVEC regardless of the concentration
[5]
  cytotoxicity (cell viability): did not exhibit cytotoxicity up to 50 μM
[6]; 10 μM, HepG2, FIG. 28
  expression of HMG-CoA reductase: most excellent efficacy of inhibiting the expression
[6]; 1 and 10 μM, compared with Rg1, Rg3, Rb1, FIG. 31
  inhibition of cholesterol synthesis (HMG-CoA reductase expression): most effective in inhibiting cholesterol synthesis
